# Data reported in patent US4698350A, “1-ethyl-6-fluoro-1,4-dihydro- 7-(2,6-dimethyl-4-pyridinyl)-4-oxo-3-quinolinecarboxylic acid and antibacterial use thereof” (Sterling Drug Inc., priority 1984, dated 1987).
# Counter-ions that a name gives are not always drawn. Like-named read-outs stand apart in the source and are kept apart here.
# Key:
# [1] = test system: Staphylococcus aureus Smith; assay: Mouse protection test, S. aureus Smith infection, single dose; assay type: in vivo, ICR mice; Staphylococcus aureus; conditions: single dose; for ED50: Staphylococcus aureus, 168 h, read-out: Protective Dose 50% (95% Confidence Limits); for times more efficacious than Win 35,439: S. aureus
# Procedure: (§1) ICR mice, female, 18-20 grams each.
# (§2) Solutions of Win 52,522 and Win 35,439 were prepared by dissolving the appropriate weight of drug in 0.3 to 0.4 ml of 1 N NaOH and then bringing the solutions to the desired volume with distilled water. Methicillin and vancomycin were dissolved directly in distilled water.
# Two and one-half ml of pool were added to 247.5 ml of 5% gastric mucin to provide the test inoculum containing 2.1×10^4 cells/ml.
# (§3) Mice were inoculated intraperitoneally with 0.5 ml of the bacterial test inoculum.
# 1. Single dose test--Mice were medicated subcutaneously or orally once (0.5 ml) one-half hour postinfection.
# (§4) Deaths were recorded daily for seven days for all tests. Fifty percent protective dose values (PD50's) were calculated using probit analysis [SAS Users Guide: Statistics, 1982 Edition, SAS Institute, Inc., Cary, N.C.].
# [2] = test system: S. aureus S-500; assay: In vitro antibacterial MIC/MBC test; assay type: cell-based; conditions: Staphylococcus aureus, S500, S. aureus S-500; for MBC: read-out: MBC; for MIC: read-out: MIC
# Procedure: (§5) Win 52,522 and Win 35,439 were solubilized in 0.1 ml of 0.5 N NaOH/mg of compound and diluted in sterile distilled water to 160 mcg/ml. Vancomycin and methicillin were solubilized in sterile distilled water to 1250 mcg/ml of base compound. The stock solutions were sterilized by filtration through membrane filters with a 0.45 μm pore size.
# (§6) The bacterial cultures listed in Table I (hereinbelow) were grown overnight at 37° C. in MHB for all cultures except the Streptococcus strains. These were grown in BHI+10% NHS. The overnight broth cultures were adjusted to an optical density of 0.10 (650 nm, B L Spectronic 20) in sterile distilled water and subsequently diluted to 6.7×10^6 cells/ml in MHB or BHI+1% NHS.
# (§7) Serial two-fold dilutions of the compound solutions were prepared in MHB (or in BHI+1% NHS for tests with Streptococci) and dispensed into 96-well microtiter trays in a volume of 0.1 ml/well using a Sandy Springs (Bellco Glass Co.) dispenser. The trays were then inoculated with 0.0015 ml of a suspension containing 6.7×10^6 cells/ml of the appropriate inoculum using a MIC-2000 inoculator (Dynatech Corp.) resulting in a final inoculum of approximately 1×10^4 cells/well or 1×10^5 cells/ml. The trays were incubated at 37° C. for 18-20 hours and the minimal inhibitory concentration (MIC), defined as the lowest concentration of compound to inhibit visible bacterial growth, was recorded.
# (§8) After the MIC values were recorded, the contents in the microtiter trays were thoroughly mixed on a Bellco Mini-orbital Shaker (Bellco Glass Co.) for 3 min. at a setting of 8. A portion (0.0015 ml) from each well was then transferred via an MIC-2000 inoculator to plates containing MHA or BHI agar+10% NHS. The plates were incubated at 37° C. for 18-20 hrs. The minimal bactericidal concentration (MBC), defined as the lowest concentration of compound that prevented the formation of a recognizable colony on the agar surface, was recorded.
# [3] = test system: S. aureus 10-81; assay: In vitro antibacterial MIC/MBC test; assay type: cell-based; conditions: Staphylococcus aureus, 1081, S. aureus 10-81; for MBC: read-out: MBC; for MIC: read-out: MIC
# Procedure: as §5, §6, §7, §8
# [4] = test system: S. pneumoniae Type III; assay: In vitro antibacterial MIC/MBC test; assay type: cell-based; conditions: for MBC / MIC: Streptococcus pneumoniae, S. pneumoniae Type III; for MBC: read-out: MBC; for MIC: read-out: MIC
# Procedure: as §5, §6, §7, §8
# [5] = test system: S. faecalis (11700); assay: In vitro antibacterial MIC/MBC test; assay type: cell-based; conditions: Enterococcus faecalis, ATCC11700, S. faecalis ATCC No. 11700; for MBC: read-out: MBC; for MIC: read-out: MIC
# Procedure: as §5, §6, §7, §8
# [6] = test system: S. epidermidis 1-5-H; assay: In vitro antibacterial MIC/MBC test; assay type: cell-based; conditions: Staphylococcus epidermidis, 15H, S. epidermidis 1-5-H; for MBC: read-out: MBC; for MIC: read-out: MIC
# Procedure: as §5, §6, §7, §8
# [7] = test system: S. pyogenes C203; assay: In vitro antibacterial MIC/MBC test; assay type: cell-based; conditions: Streptococcus pyogenes, S. pyogenes C203; for MBC: read-out: MBC; for MIC: read-out: MIC
# Procedure: as §5, §6, §7, §8
# [8] = test system: S. aureus 34-81; assay: In vitro antibacterial MIC/MBC test; assay type: cell-based; conditions: Staphylococcus aureus, 3481, S. aureus 34-81; for MBC: read-out: MBC; for MIC: read-out: MIC
# Procedure: as §5, §6, §7, §8
# [9] = test system: S. pyogenes (89); assay: In vitro antibacterial MIC/MBC test; assay type: cell-based; conditions: Streptococcus pyogenes, S. pyogenes SWRI No. 89; for MBC: read-out: MBC; for MIC: read-out: MIC
# Procedure: as §5, §6, §7, §8
# [10] = test system: S. aureus Glorgio; assay: In vitro antibacterial MIC/MBC test; assay type: cell-based; conditions: Staphylococcus aureus, S. aureus Glorgio; for MBC: read-out: MBC; for MIC: read-out: MIC
# Procedure: as §5, §6, §7, §8
# [11] = test system: Staphylococcus aureus 39881 (Methicillin-resistant); assay: Mouse protection test, S. aureus 39881 (methicillin-resistant) infection; assay type: in vivo, ICR mice; Staphylococcus aureus; conditions: for Survivors/Total: two doses; for ED50: Staphylococcus aureus, 168 h, read-out: Protective Dose 50% (95% Confidence Limits); for ED50 / Protective Dose 50% (95% Confidence Limits): two doses one-half and four hours postinfection; for Protective Dose 50% (95% Confidence Limits): 10080 min
# Procedure: as §1, §2
# The culture was streaked onto three Brain Heart Infusion Agar plates and incubated 16 hours at 37° C. The cells were washed off each plate with five ml of saline and the cell suspension was shaken with glass beads for two minutes on a paint shaker. The suspension was diluted with saline so that a […] gave a 44% T reading on a B+L Spectronic 20 (650 nm) calibrated with saline. The stock suspension was diluted 1:24 (10 ml stock suspension+230 ml 5% mucin) to obtain the test inoculum containing 1.55×10^9 cells/ml.
# as §3
# Mice were medicated twice: at one-half and four hours postinfection. The drugs were administered by both subcutaneous (0.2 ml) and oral (0.5 ml) routes.
# as §4
# [12] = test system: Streptococcus sp.; assay: In vitro MIC/MBC summary (Table II); assay type: cell-based; conditions: for MIC50: read-out: MIC 50%
# Procedure: as §5, §6, §7, §8
# [13] = test system: S. aureus; assay: In vitro MIC/MBC summary (Table II); assay type: cell-based; conditions: Staphylococcus aureus; for MIC: read-out: MIC Range
# Procedure: as §5, §6, §7, §8
# [14] = 9 Streptococcus sp. strains, read-out: MBC 50%
# [15] = 9 Streptococcus sp. strains, read-out: MBC 90%
smiles,measurement,setting,value
"CCn1cc(C(=O)O)c(=O)c2cc(F)c(-c3cc(C)nc(C)c3)cc21 [Win 52,522, 1-ethyl-6-fluoro-1,4-dihydro-7-(2,6-dimethyl-4-pyridinyl)-4-oxo-3-quinolinecarboxylic acid]",Survivors/Total,[1]; 0.095 mg/kg sc,0/10
same,Survivors/Total,[1]; 0.19 mg/kg po,0/10
same,Survivors/Total,[1]; 0.19 mg/kg sc,0/10
same,Survivors/Total,[1]; 0.39 mg/kg po,0/10
same,Survivors/Total,[1]; 0.39 mg/kg sc,2/10
same,Survivors/Total,[1]; 0.78 mg/kg po,0/10
same,Survivors/Total,[1]; 0.78 mg/kg sc,4/10
same,Survivors/Total,[1]; 1.56 mg/kg po,7/10
same,Survivors/Total,[1]; 1.56 mg/kg sc,10/10
same,Survivors/Total,[1]; 3.13 mg/kg po,10/10
same,ED50,[1]; po,~1.4 mg/kg
same,ED50,[1]; sc,0.8 mg/kg
same,"times more efficacious than Win 35,439",[1]; po,3.9 times
same,"times more efficacious than Win 35,439",[1]; sc,3.6 times
same,MBC,[2],0.06 µg/mL
same,MIC,[2],0.03 µg/mL
same,MBC,[3],0.03 µg/mL
same,MIC,[3],0.03 µg/mL
same,MBC,[4],0.5 µg/mL
same,MIC,[4],0.5 µg/mL
same,times less potent than vancomycin,"[4]; in vitro, S. pneumoniae type III",8 times
same,MBC,[5],0.25 µg/mL
same,MIC,[5],0.25 µg/mL
same,MBC,[6],0.06 µg/mL
same,MIC,[6],0.06 µg/mL
same,MBC,[7],0.5 µg/mL
same,MIC,[7],0.5 µg/mL
same,MBC,[8],0.03 µg/mL
same,MIC,[8],0.03 µg/mL
same,MBC,[9],0.5 µg/mL
same,MIC,[9],0.5 µg/mL
same,MBC,[10],0.015 µg/mL
same,MIC,[10],< 0.008 µg/mL
same,Survivors/Total,[11]; 0.19 mg/kg po,0/10
same,Survivors/Total,[11]; 0.19 mg/kg sc,0/10
same,Survivors/Total,[11]; 0.39 mg/kg po,0/10
same,Survivors/Total,[11]; 0.39 mg/kg sc,0/10
same,Survivors/Total,[11]; 0.78 mg/kg po,1/10
same,Survivors/Total,[11]; 0.78 mg/kg sc,2/10
same,Survivors/Total,[11]; 1.56 mg/kg po,4/10
same,Survivors/Total,[11]; 1.56 mg/kg sc,10/10
same,Survivors/Total,[11]; 3.13 mg/kg po,10/10
same,Survivors/Total,[11]; 3.13 mg/kg sc,9/10
same,Survivors/Total,[11]; 6.25 mg/kg po,10/10
same,Survivors/Total,[11]; 6.25 mg/kg sc,10/10
same,ED50,[11]; po,1.6 mg/kg
same,ED50,[11]; sc,1.1 mg/kg
same,times more efficacious than methicillin,[11]; methicillin-resistant S. aureus infection in mice,> 91 times
same,Protective Dose 50% (95% Confidence Limits),[11]; po,1.6(1.3-2.4) mg/kg
same,"times more active than Win 35,439",[11]; sc,4.5 times
same,times more efficacious/active than vancomycin,[11]; sc,16 times
same,Protective Dose 50% (95% Confidence Limits),[11]; sc,1.1(0.1-4.1) mg/kg
same,MBC,[12]; [14],0.5 µg/mL
same,MBC,[12]; [15],0.5 µg/mL
same,MBC,"[12]; 9 Streptococcus sp. strains, read-out: MBC Range",0.125 to 0.5 µg/mL
same,MIC50,[12]; 9 Streptococcus sp. strains,0.25 µg/mL
same,MIC,"[12]; 9 Streptococcus sp. strains, read-out: MIC Range",0.125 to 0.5 µg/mL
same,MIC90,[12]; Streptococcus,0.5 µg/mL
same,MBC,"[13]; 15 S. aureus strains, read-out: MBC Range",0.015 to 0.06 µg/mL
same,MIC50,"[13]; 15 S. aureus strains, read-out: MIC 50%",0.015 µg/mL
same,MIC90,"[13]; 15 S. aureus strains, read-out: MIC 90%",0.03 µg/mL
same,MIC,[13]; 15 S. aureus strains,0.008 to 0.03 µg/mL
"COc1cccc(OC)c1C(=O)N[C@@H]1C(=O)N2[C@@H]1SC(C)(C)[C@@H]2C(=O)O [Methicillin, 6-(2,6-dimethoxybenzamido)penicillanic acid sodium salt]",MBC,[2],32 µg/mL
same,MIC,[2],8 µg/mL
same,MBC,[3],16 µg/mL
same,MIC,[3],8 µg/mL
same,MBC,[4],0.125 µg/mL
same,MIC,[4],0.125 µg/mL
same,MBC,[5],64 µg/mL
same,MIC,[5],64 µg/mL
same,MBC,[6],2 µg/mL
same,MIC,[6],1 µg/mL
same,MBC,[7],0.125 µg/mL
same,MIC,[7],0.125 µg/mL
same,MBC,[8],2 µg/mL
same,MIC,[8],1 µg/mL
same,MBC,[9],≤ 0.06 µg/mL
same,MIC,[9],≤ 0.06 µg/mL
same,MBC,[10],4 µg/mL
same,MIC,[10],2 µg/mL
same,Survivors/Total,[11]; 25 mg/kg sc,0/10
same,Survivors/Total,[11]; 50 mg/kg sc,0/10
same,Survivors/Total,[11]; 100 mg/kg sc,0/10
same,ED50,[11]; sc,> 100 mg/kg
same,MBC,[12]; [14],0.125 µg/mL
same,MBC,[12]; [15],64 µg/mL
same,MIC50,[12]; 9 Streptococcus sp. strains,0.25 µg/mL
same,MIC90,"[12]; 9 Streptococcus sp. strains, read-out: MIC 90%",64 µg/mL
same,MIC50,[13],2 µg/mL
same,MIC90,[13],8 µg/mL
same,MBC,[13]; read-out: MBC 90%,> 64 µg/mL
same,MIC,[13],1 to 125 µg/mL
